How the values were obtained:
[1] = tested on: Staphylococcus Aureus; experiment: Agar disc diffusion, strain F; type: cell-based; set-up: Inhibition%: concentration or dose not given beside the values; settings: for Diameter of clear zone inhibition: control 6 mm
[2] = tested on: CT-DNA; experiment: DNA binding by UV-vis absorption titration; settings: for % H (hypochromism): Tris-HCl pH 7.4, 25 °C; for Kb, BH-I (Benesi–Hildebrand method I) / Kb, BH-II (Benesi–Hildebrand method II) / Kb, SK-I (Sakthi–Krause method I) / Kb, SK-II (Sakthi–Krause method II) / Kb, WS-I (Wolfe–Shimmer method I) / Kb, WS-II (Wolfe–Shimmer method II): pH 7.4, 25 °C
Method: The DNA-binding experiment was conducted with an electronic absorption spectrophotometer by raising the DNA concentration from zero to 50 μM to the given concentration of all samples (50 μM) in Tris-HCl buffer (5 mM Tris-HCl/50 mM NaCl) with a pH of 7.4 at 25 °C.[13,23–26]
Most medications involve intercalation and groove binding via GC (guanine/cytosine)-rich and AT (adenine/thymine)-rich domains, respectively. The interactions were determined experimentally by electronic absorption spectrum titration. Moreover, intercalating binding is indicated by bathochromic and hypochromic shifts in the absorption spectra, whereas groove binding of the complexes with DNA is indicated by hyperchromic shifts in the titration curve.[61] Generally, four kinds of non-covalent engagements that can be absolutely critical in the interaction of substances with DNA are most frequently illustrated in the literature: (i) involves a negatively charged phosphate fragment as a result of electrostatic interaction; (ii) influences weak van der Waals force attraction/H-bonding; (iii) interaction of a functional moiety with the grooves (major/minor) of the double-stranded DNA as a result of a molecule sticking due to general attraction, or as a result of water or H-bonding expulsion, etc.; (iv) the stacked base pairs of natural DNA are intercalated by hydrophobic forces. Nevertheless, substances are engaged in the reaction because of […] preferred N-7 position and adenine's N-3 location in DNA. The DNA base pairing may also be prevented due to miscoding. All complexes (1–3), including free ligand (HL), were measured both when DNA was present and when it was absent using ultraviolet–visible spectrophotometric absorption titrations in buffer solution with a pH of 7.4 at 25 °C (Fig. 3). In this case, all substances were exposed to two prominent electronic absorption bands of about 260 nm and 335–343 nm, consequent to the π–π* transitions of the phenyl chromophore and MLCT, respectively. While the amount of DNA in each compound rises, the interaction of the chemical substance with DNA base pairs generates noticeable alterations in the strength and wavelength of the intra-ligand charge transfer bands. […] Using Wolfe–Shimmer eqn (1) and (2), Benesi–Hildebrand eqn (3) and (4) and Sakthi–Krause eqn (5) and (6), the observed overall Kb values for all samples were in the following sequence: (2) > (3) > (1) > (HL). […] It is concluded that the co-planarity of the morpholine-linked ligand and complexation of the 2,2′-bipyridine aromatic system with the metal centre promote the ability of the complex to infiltrate DNA base pairs smoothly. Large aromatic systems may also assist the complex to deeply penetrate the core of the phosphate backbone, and those substances may permit the complex to freely penetrate deep into the DNA base pairs. […] The Wolfe–Shimmer eqn (1) and (2),[62] Benesi–Hildebrand eqn (3) and (4),[63] and Sakthi–Krause eqn (5) and (6) were applied to evaluate the Kb results for all samples, which were obtained by modification of the Lineweaver–Burk and Stern–Volmer equations (Table 1).
The Kb values were measured using the Wolfe–Shimmer eqn (1) and (2) from the linear regression plots of [DNA]/(εa − εf) vs. [DNA] M^−1 for method I and (εb − εf)/(εa − εf) vs. 1/[DNA] M^−1 for method II, respectively (Fig. S15 ^†). The Benesi–Hildebrand binding constant (Kb) values were measured using eqn (3) and (4) from the linear regression plots of [1/(Ax − A0)] vs. {1/[DNA]} M^−1 for method I and [(Amax − A0)/(Ax − A0)] vs. {1/[DNA]} M^−1 for method II, respectively (Fig. S16 ^†). The Kb values were estimated using Sakthi–Krause eqn (5) and (6) from the linear regression plots of [A/(A0 − A)] vs. {1/[DNA]} M^−1 for method I (Fig. S17 ^†) and {1/[DNA]} vs. log[A/(A0 − A)] M^−1 for method II (Fig. S18 ^†). In addition, A0 and A represent the absorbance intensity values in the absence and presence of [DNA], respectively. […]

[3] = tested on: HepG2; experiment: MTT cell viability assay, HepG2; type: cell-based, human; settings: HepG2, 72 h of exposure
[4] = tested on: Shigella flexneri; experiment: Agar disc diffusion, strain E; type: cell-based; set-up: Inhibition%: concentration or dose not given beside the values; settings: for Diameter of clear zone inhibition: control 6 mm
[5] = tested on: Salmonella enterica serovar typhi; experiment: Agar disc diffusion, strain C; type: cell-based; settings: for Diameter of clear zone inhibition: control 6 mm
[6] = tested on: NHDF; experiment: MTT cell viability assay, NHDF; type: cell-based, human; settings: NHDF normal cells, 72 h of exposure
Method: Cellular viability or metabolic properties can be measured using the MTT assay, which is a powerful and consistent method for cytotoxic properties. […] As per the colorimetric approach, the IC50 values of all compounds were evaluated via the percentage of cell viability or inhibition of growth.[128] […] However, complexes (2) and (3) were exposed to similar cytotoxic potential as the others,[129] which induces apoptosis due to their ability to produce ROS more efficiently than the free ligand. […] The cytotoxic effectiveness is dependent upon the DNA binding modalities, the structure–activity relationship, the drug concentrations, and the incubation period exposure.[130] […] Coordination between the ligands and metal ions results in charge equilibration, which diminishes the polarity of the metal ions and also causes the ability of the test complexes to pass via the cell membrane lipid layer in accordance with Tweedy's chelation theory. Thus, it inhibits the synthesis of cell-wall/protein/nucleic acid. Additionally, the results of DNA binding tests using these complexes, including gel electrophoresis, UV-vis spectral titration, hydrodynamics, emission, and CV findings, were in good agreement with the findings of cytotoxicity.[131] Expressions eqn (44) and (45) were applied to measure the percentage of growth inhibition and cell viability (Table 10). In this case, complexes (2) and (3) have been proven to have greater biological efficiency than the others. Cytotoxicity depends on not only the hydrophilicity or lipophilicity and permeability, which only assist the crossing of the cell membrane but are not responsible for cell death, but also on several other factors, including the Lewis acid character, overall stability, solubility, conductivity, compatibility, length of the metal–ligand bond, overall charge, electron density, reduction potential, dipole moment, intermolecular hydrogen bonds, proton transfer equilibrium, and coordination environment. These significant elements might also contribute to the increased biological activity. Moreover, cobalt is also generally not considered to be a very toxic element, and its coordination complexes have fascinating redox and magnetic characteristics that fit them for a remarkable range of biological and medical uses. […] Moreover, it is possible to intelligently adjust these factors to successfully target a desired pathway or biomolecule. Designing such well-controlled and selective cobalt-based therapeutics may benefit from a mechanistic understanding of the varied bioactivities of cobalt complexes. Thus, knowing the mechanism of action can direct the advancement of prospective cobalt treatments to clinical trial.[133]
2.5. Assessment of in-vitro antimicrobial properties
bacteria and 7 days for fungal strains.

| Compound | Inhibition% [1] [%] | Diameter of clear zone inhibition [1] [mm] | % H (hypochromism) [2] [%] | Kb, BH-I (Benesi–Hildebrand method I) [2] [M⁻¹] | Kb, BH-II (Benesi–Hildebrand method II) [2] [M⁻¹] | Kb, SK-I (Sakthi–Krause method I) [2] [M⁻¹] | Kb, SK-II (Sakthi–Krause method II) [2] [M⁻¹] | Kb, WS-I (Wolfe–Shimmer method I) [2] [M⁻¹] | Kb, WS-II (Wolfe–Shimmer method II) [2] [M⁻¹] | IC50 [3] [µM] | Inhibition% [4] [%] | Diameter of clear zone inhibition [4] [mm] | Inhibition% [5] [%] | Diameter of clear zone inhibition [5] [mm] | IC50 [6] [µM] | IC50 ([3]; Homo sapiens) [µM] | IC50 ([6]; Homo sapiens) [µM] |
| --- | --- | --- | --- | --- | --- | --- | --- | --- | --- | --- | --- | --- | --- | --- | --- | --- | --- |
| [Mn+2].[O-]c1ccccc1N=Cc1ccc(N2CCOCC2)cc1.[O-]c1ccccc1N=Cc1ccc(N2CCOCC2)cc1.c1ccc(-c2ccccn2)nc1 [(1)] | 40 | 10 | 40.61 | 9942 | 21067 | 11049 | 20389 | 18195 | 20826 | 36 ± 1.8 | 40 | 10 | 40 | 10 | 76.6 ± 3.8 | – | – |
| [Co+2].[O-]c1ccccc1N=Cc1ccc(N2CCOCC2)cc1.[O-]c1ccccc1N=Cc1ccc(N2CCOCC2)cc1.c1ccc(-c2ccccn2)nc1 [(2)] | 45 | 11 | 36.16 | 10468 | 21524 | 14965 | 22526 | 18806 | 21379 | 35.9 ± 1.8 | 33 | 09 | 40 | 10 | 74 ± 3.7 | – | – |
| [Ni+2].[O-]c1ccccc1N=Cc1ccc(N2CCOCC2)cc1.[O-]c1ccccc1N=Cc1ccc(N2CCOCC2)cc1.c1ccc(-c2ccccn2)nc1 [(3)] | 40 | 10 | 43.46 | 18212 | 20938 | 13001 | 20417 | 18207 | 21275 | 33.6 ± 1.7 | 54 | 13 | 45 | 11 | 73.8 ± 3.7 | – | – |
| Oc1ccccc1N=Cc1ccc(N2CCOCC2)cc1 [(HL), 2-(4-morpholinobenzylideneamino)phenol] | 33 | 09 | 37.13 | 6000 | 19515 | 8775 | 17216 | 15169 | 15480 | – | 57 | 14 | 45 | 11 | – | 108 ± 5.4 | 209 ± 10.4 |

— publication PMC10508264, “Exploring the antioxidant, antimicrobial, cytotoxic and biothermodynamic properties of novel morpholine derivative bioactive Mn(II), Co(II) and Ni(II) complexes – combined experimental and theoretical measurements towards DNA/BSA/SARS-CoV-2 3CL^Pro” (RSC Medicinal Chemistry, 2023)
